Legend:
Type in all cases: in vivo
[1] = test system: Echinochloa crus-galli (ECHCG); experiment: Herbicidal pre-emergence action, section C (Table C3); conditions: Echinochloa crus-galli, pre-emergence, 504 h; application rate 320 g/ha; visual grading after ca. 3 weeks vs untreated controls; read-out: pre-emergence activity against ECHCG in %
Text: (§1) Seeds of mono- and dicotyledonous weed plants and crop plants were sown, in plastic or organic planting pots, in sandy loam and covered with soil. The compounds according to the invention, formulated in the form of wettable powders (WP) or as emulsifiable concentrates (EC), were applied to the surface of the covering soil as aqueous suspension or emulsion, with the addition of 0.5% of an additive, at an application rate of 600 l of water/ha (converted). Following treatment, the pots were placed in a greenhouse and kept under optimum growth conditions for the test plants. The visual grading of the damage to the test plants was carried out after ca. 3 weeks in comparison to untreated controls (herbicidal effect in percent (%): 100% effect=plants have died off, 0% effect=as control plants).

Setaria viridis (SETVI) [2] = experiment: Herbicidal pre-emergence action, section C (Table C8); conditions: Setaria viridis, pre-emergence, 504 h; application rate 320 g/ha; visual grading after ca. 3 weeks; read-out: pre-emergence activity against SETVI in %
Text: as §1

[3] = test system: Digitaria sanguinalis (DIGSA); experiment: Herbicidal pre-emergence action, section C (Table C12); conditions: Digitaria sanguinalis, pre-emergence, 504 h; application rate 320 g/ha; visual grading after ca. 3 weeks; read-out: pre-emergence activity against DIGSA in %
Text: as §1

Zea mays (ZEAMX) [4] = experiment: Pre-emergence effects on crop plants, section D (Table D1); conditions: application rate 320 g/ha; visual grading after ca. 3 weeks
Text: (§2) Seeds of mono- and dicotyledonous weed plants and crop plants were sown, in plastic or organic planting pots, in sandy loam and covered with soil. The compounds according to the invention, formulated in the form of wettable powders (WP) or as emulsifiable concentrates (EC), were applied to the surface of the covering soil as aqueous suspension or emulsion, with the addition of 0.5% of an additive, at an application rate of 600 l of water/ha (converted).
(§3) Following treatment, the pots were placed in a greenhouse and kept under optimum growth conditions for the test plants. The visual grading of the damage to the test plants was carried out after ca. 3 weeks in comparison to untreated controls (herbicidal effect in percent (%): 100% effect=plants have died off, 0% effect=as control plants).
(§4) Tables D1 to D5 below show the effects of various compounds of the general formula (I) according to Table 1 on various crop plants and an application rate corresponding to 320 g/ha or below obtained by the experimental procedure mentioned above in Biological Examples, Section C.

[5] = test system: Triticum aestivum (TRZAS); experiment: Pre-emergence effects on crop plants, section D (Table D2); conditions: application rate 320 g/ha; visual grading after ca. 3 weeks
Text: as §2, §3, §4

Zea mays (ZEAMX) [6] = experiment: Post-emergence effects on crop plants, section F (Table F1); conditions: Zea mays, 504 h, application rate 80 g/ha, read-out: post-emergence activity against ZEAMX in %
Text: (§5) Seeds of mono- and dicotyledonous weed plants and crop plants were sown, in plastic or organic planting pots, in sandy loam, covered with soil and grown in a greenhouse under controlled growth conditions. 2 to 3 weeks after sowing, the test plants were sprayed in the single-leaf stage. The compounds according to the invention, formulated in form of wettable powders (WP) or as emulsifiable concentrates (EC), were sprayed onto the green plant parts as aqueous suspension or emulsion, with the addition of 0.5% of an additive, at an application rate of 600 l of water/ha (converted). The test plants were placed in the greenhouse for ca. 3 weeks under optimum growth conditions, and then the effect of the preparations was assessed visually in comparison with untreated controls (herbicidal effect in percent (%): 100% effect=plants have died off, 0% effect=as control plants). Tables F1 to F4 below show the effects of selected compounds of the general formula (I) according to Table 1 on various crop plants and an application rate corresponding to 320 g/ha or below obtained by the experimental procedure mentioned above.

[7] = test system: Triticum aestivum (TRZAS); experiment: Post-emergence effects on crop plants, section F (Table F2); conditions: Triticum aestivum, 504 h, application rate 320 g/ha, read-out: post-emergence activity against TRZAS in %
Text: as §5

Glycine max (GLXMA) = experiment: Post-emergence effects on crop plants, section F (Table F4); conditions: Glycine max, 504 h, application rate 320 g/ha, read-out: post-emergence activity against GLXMA in %
Text: as §5

Poa annua (POAAN) [8] = experiment: Herbicidal pre-emergence action, section A (Table A7); conditions: application rate 1280 g/ha; visual grading after ca. 3 weeks vs untreated controls
Text: as §1, with “plants” for “plants and crop plants”, “sown” for “sown,”, “pots (double sowings with one species of mono- and one species of dicotyledonous weed plants per pot),” for “or organic planting pots,”, “loam,” for “loam”, “water per hectare” for “water/ha”

Setaria viridis (SETVI) [9] = experiment: Herbicidal pre-emergence action, section A (Table A8); conditions: application rate 1280 g/ha
Text: as §1, with “plants” for “plants and crop plants”, “sown” for “sown,”, “pots (double sowings with one species of mono- and one species of dicotyledonous weed plants per pot),” for “or organic planting pots,”, “loam,” for “loam”, “water per hectare” for “water/ha”

[10] = test system: Abutilon theophrasti (ABUTH); experiment: Herbicidal post-emergence action, section B (Table B1); conditions: application rate 1280 g/ha, rated visually after about 3 weeks
Procedure: (§6) Seeds of mono- and dicotyledonous weed plants were placed in plastic pots in sandy loam soil (doubly sown with in each case one species of mono- or dicotyledonous weed plants per pot), covered with soil and cultivated in a greenhouse under controlled growth conditions. 2 to 3 weeks after sowing, the test plants were treated at the one-leaf stage. The compounds of the invention, formulated in the form of wettable powders (WP) or as emulsion concentrates (EC), were applied onto the green parts of the plants as aqueous suspension or emulsion with addition of 0.5% additive at a water application rate of 600 liters per hectare (converted). After the test plants had been kept in the greenhouse under optimum growth conditions for about 3 weeks, the activity of the preparations was rated visually in comparison to untreated controls. For example, 100% activity=the plants have died, 0% activity=like control plants.

[11] = test system: Echinochloa crus-galli (ECHCG); experiment: Herbicidal post-emergence action, section B (Table B3); conditions: application rate 1280 g/ha, rated visually after about 3 weeks
Procedure: as §6

Poa annua (POAAN) [12] = experiment: Herbicidal post-emergence action, section B (Table B7); conditions: application rate 1280 g/ha; visual rating about 3 weeks after treatment vs untreated controls
Procedure: as §6

Stellaria media (STEME) [13] = experiment: Herbicidal post-emergence action, section B (Table B9); conditions: application rate 1280 g/ha; visual rating about 3 weeks after treatment vs untreated controls
Procedure: as §6

Veronica persica (VERPE) = experiment: Herbicidal post-emergence action, section B (Table B10); conditions: application rate 320 g/ha; visual rating about 3 weeks after treatment vs untreated controls
Procedure: as §6

[14] = test system: Amaranthus retroflexus (AMARE); experiment: Herbicidal post-emergence action, section B (Table B11); conditions: application rate 1280 g/ha; visual rating about 3 weeks after treatment vs untreated controls
Procedure: as §6

Kochia scoparia (KCHSC) = experiment: Herbicidal pre-emergence action, section A (Table A4); conditions: application rate 1280 g/ha; visual grading after ca. 3 weeks vs untreated controls
Text: as §1, with “plants” for “plants and crop plants”, “sown” for “sown,”, “pots (double sowings with one species of mono- and one species of dicotyledonous weed plants per pot),” for “or organic planting pots,”, “loam,” for “loam”, “water per hectare” for “water/ha”

Stellaria media (STEME) [15] = experiment: Herbicidal pre-emergence action, section A (Table A9); conditions: application rate 1280 g/ha
Text: as §1, with “plants” for “plants and crop plants”, “sown” for “sown,”, “pots (double sowings with one species of mono- and one species of dicotyledonous weed plants per pot),” for “or organic planting pots,”, “loam,” for “loam”, “water per hectare” for “water/ha”

[16] = test system: Amaranthus retroflexus (AMARE); experiment: Herbicidal pre-emergence action, section A (Table A11); conditions: application rate 1280 g/ha
Text: as §1, with “plants” for “plants and crop plants”, “sown” for “sown,”, “pots (double sowings with one species of mono- and one species of dicotyledonous weed plants per pot),” for “or organic planting pots,”, “loam,” for “loam”, “water per hectare” for “water/ha”

[17] = test system: Digitaria sanguinalis (DIGSA); experiment: Herbicidal pre-emergence action, section A (Table A12); conditions: application rate 1280 g/ha
Text: as §1, with “plants” for “plants and crop plants”, “sown” for “sown,”, “pots (double sowings with one species of mono- and one species of dicotyledonous weed plants per pot),” for “or organic planting pots,”, “loam,” for “loam”, “water per hectare” for “water/ha”

[18] = test system: Digitaria sanguinalis (DIGSA); experiment: Herbicidal post-emergence action, section B (Table B12); conditions: application rate 1280 g/ha; visual rating about 3 weeks after treatment vs untreated controls
Procedure: as §6

COC(=O)CCC(=O)N1CSc2cc(Br)c(-c3sccc3Cl)nc21 [Example I-077, methyl 4-[6-bromo-5-(3-chloro-2-thienyl)-2H-thiazolo[4,5-b]pyridin-3-yl]-4-oxo-butanoate]
pest or weed control at 320 g/ha [1]: 90% | pest or weed control at 320 g/ha (Setaria viridis (SETVI) [2]): 90% | pest or weed control at 320 g/ha [3]: 90% | pre-emergence activity against ZEAMX in % (crop plant damage) (Zea mays (ZEAMX) [4]): 10% | pre-emergence activity against TRZAS in % (crop plant damage) [5]: 0% | percent crop plant damage (phytotoxicity) on Zea mays, post-emergence at 80 g/ha (Zea mays (ZEAMX) [6]): 0% | percent crop plant damage (wheat, post-emergence) at 320 g/ha [7]: 20% | percent crop plant damage at 320 g/ha (Glycine max (GLXMA)): 10%

COC(=O)CCC(=O)N1CSc2cc(Br)c(-c3ccc(F)cc3F)nc21 [Example I-085]
pre-emergence activity against POAAN in % (Poa annua (POAAN) [8]): 100% | pre-emergence activity against SETVI in % (Setaria viridis (SETVI) [9]): 100% | post-emergence activity against ABUTH in % [10]: 90% | post-emergence activity against ECHCG in % [11]: 90% | post-emergence activity against POAAN in % (Poa annua (POAAN) [12]): 90% | post-emergence activity against STEME in % (Stellaria media (STEME) [13]): 90% | post-emergence activity against VERPE in % (Veronica persica (VERPE)): 100% | post-emergence activity against AMARE in % [14]: 90%

CC(=O)N1CSc2cc(Br)c(-c3cccc(Cl)c3F)nc21 [Example I-115]
pre-emergence activity against KCHSC in % (Kochia scoparia (KCHSC)): 90% | pre-emergence activity against STEME in % (Stellaria media (STEME) [15]): 90% | pre-emergence activity against AMARE in % [16]: 90% | pre-emergence activity against DIGSA in % [17]: 100% | post-emergence activity against POAAN in % (Poa annua (POAAN) [12]): 90% | post-emergence activity against DIGSA in % [18]: 90%

From patent US20240381872A1, “SUBSTITUTED 2,3-DIHYDRO[1,3]THIAZOLO[4,5-B]PYRIDINES, SALTS THEREOF AND THEIR USE AS HERBICIDALLY ACTIVE SUBSTANCES” (BAYER AKTIENGESELLSCHAFT, priority 2021, published 2024)
